Results on 2 molecules are retold here after patent US20250195532A1, “NOVEL PHOSPHOINOSITIDE 3-KINASE (PI3K) INHIBITOR, COMPOSITIONS COMPRISING THE SAME, METHODS OF MAKING, AND METHODS OF TREATING A DISEASE” (The Curators of the University of Missouri, priority 2022, published 2025).

Data set [1] has as its system LNCaP cell line cells. In words: Cellular uptake / cell killing by luminescence, LNCaP. It is filed as cell-based. The note with it: Homo sapiens, FIG. 5F. The protocol:
(§1) Different cell lines were seeded, incubated, and washed prior to administering a dose solution of CK-TGX-MN. Cell lines tested included LNCaP cell line, which is a cell line with epithelial-like morphology that was isolated from a metastatic lymph node a lesion of human prostate cancer; C4-2, which is a prostate cancer cell line derived from LNCaP cells that grows in the absence of androgens, yet responds to manipulation of androgen levels; GL261 cell line, which are murine glioma cells isolated from […] brain; PC-3 cell line, which is a prostate cancer cell line that is typically used as a model of androgen-independent prostate cancer; TRAMP cell line, which are epithelial cells isolated from transgenic adenocarcinoma of the mouse prostate; and Hela cell line, which is an immortalized human cell line isolated from cervical cancer cells.
(§2) The cellular uptake was measured as a function of luminescence and concentration of CK-TGX-MN, by determining the IC50 value. A decrease in luminescence observed translates to the efficacy of CK-TGX-MN in killing the cells of the respective cell culture.
Finally, moving on to FIG. 5F, the cellular uptake of CK-TGX-MN and TGX-221 in LNCaP cell line cells was measured.

Data set [2] is described as follows: physchem. It is filed as physicochemical.
In data set [3] the test system is TRAMP cell line cells. The data set can be described thus: Cellular uptake / cell killing by luminescence, TRAMP. It is filed as cell-based. The note with it: Mus musculus, FIG. 5D. The protocol:
as §1, §2
Moving on to FIG. 5D, the cellular uptake of CK-TGX-MN and TGX-221 in TRAMP cell line cells was measured.

Data set [4] relates to GL261 cell line cells. In words: Cellular uptake / cell killing by luminescence, GL261. The class given is cell-based, murine. The note with it: Mus musculus, FIG. 5B. On the procedure:
as §1, §2

For data set [5], the target named is PI3Kβ isoform (Homo sapiens, UniProt P42338). The data set can be described thus: Inhibition of PI3Kβ isoform, dose response curves (FIG. 4B). The class given is biochemical.
Data set [6] in a line: Pharmacokinetic (PK) study, IV and oral route, in mice. As to conditions: mouse, in vivo, oral 2 mg/ml formulation vs IV 1 mg/ml formulation. The protocol: Bioavailability in Pharmacology is a measure of an amount of a drug substance that enters the circulation and becomes completely available for its intended purpose when introduced into the body. There are several delivery routes for drugs including intra-venous route (IV), oral route, subcutaneous route, rectal route, intramuscular route, vaginal route, inhaled route, and the like.
Bioavailability of CK-TGX-MN was determined in relation to a liquid formulation of CK-TGX-MN 1 mg/ml in 5% DMSO, 10%, and 85% aqueous solution. A dose amount of aqueous CK-TGX-MN was prepared for delivery through the IV route in-vivo. Additionally, a liquid formulation of CK-TGX-MN 2 mg/ml in 5% DMSO, 10%, and 85% aqueous solution was prepared for delivery of a dose amount of CK-TGX-MN through the oral route in-vivo. The pharmacokinetic (PK) studies were performed in mice. As shown in graph 302 of FIG. 3B, the depicted example mice had similar clearance of IV delivered CK-TGX-MN over time.

The subject of data set [7] is PC-3 cell line cells. The data set can be described thus: Cellular uptake / cell killing by luminescence, PC-3. The class given is cell-based. As to conditions: Homo sapiens, PC-3 cells, FIG. 5C. The protocol: as §1, §2
Moving on to FIG. 5C, the cellular uptake of CK-TGX-MN and TGX-221 in PC-3 cell line cells was measured.

Data set [8] concerns Hela cell line cells. In words: Cellular uptake / cell killing by luminescence, Hela. It is filed as cell-based. As to conditions: Homo sapiens, FIG. 5E. On the procedure:
as §1, §2
Moving on to FIG. 5E, the cellular uptake of CK-TGX-MN and TGX-221 in Hela cell line cells was measured.

For data set [9], the system named is C4-2 cell line cells. The data set can be described thus: Cellular uptake / cell killing by luminescence, C4-2. The class given is cell-based. The note with it: Homo sapiens, C4-2 cells, FIG. 5A. On the procedure: as §1, §2
For data set [10] the following is noted: background statement, cited from earlier work.

“And” between values parts separate entries of the source, which are not always exact repeats. Equal values may be shown once. Read-outs that look alike come from different tables or passages of the source. Where only a bound is given, the exact number is not on record here.

PI3Kβ isoform, sequence (P42338 whole entry, canonical isoform): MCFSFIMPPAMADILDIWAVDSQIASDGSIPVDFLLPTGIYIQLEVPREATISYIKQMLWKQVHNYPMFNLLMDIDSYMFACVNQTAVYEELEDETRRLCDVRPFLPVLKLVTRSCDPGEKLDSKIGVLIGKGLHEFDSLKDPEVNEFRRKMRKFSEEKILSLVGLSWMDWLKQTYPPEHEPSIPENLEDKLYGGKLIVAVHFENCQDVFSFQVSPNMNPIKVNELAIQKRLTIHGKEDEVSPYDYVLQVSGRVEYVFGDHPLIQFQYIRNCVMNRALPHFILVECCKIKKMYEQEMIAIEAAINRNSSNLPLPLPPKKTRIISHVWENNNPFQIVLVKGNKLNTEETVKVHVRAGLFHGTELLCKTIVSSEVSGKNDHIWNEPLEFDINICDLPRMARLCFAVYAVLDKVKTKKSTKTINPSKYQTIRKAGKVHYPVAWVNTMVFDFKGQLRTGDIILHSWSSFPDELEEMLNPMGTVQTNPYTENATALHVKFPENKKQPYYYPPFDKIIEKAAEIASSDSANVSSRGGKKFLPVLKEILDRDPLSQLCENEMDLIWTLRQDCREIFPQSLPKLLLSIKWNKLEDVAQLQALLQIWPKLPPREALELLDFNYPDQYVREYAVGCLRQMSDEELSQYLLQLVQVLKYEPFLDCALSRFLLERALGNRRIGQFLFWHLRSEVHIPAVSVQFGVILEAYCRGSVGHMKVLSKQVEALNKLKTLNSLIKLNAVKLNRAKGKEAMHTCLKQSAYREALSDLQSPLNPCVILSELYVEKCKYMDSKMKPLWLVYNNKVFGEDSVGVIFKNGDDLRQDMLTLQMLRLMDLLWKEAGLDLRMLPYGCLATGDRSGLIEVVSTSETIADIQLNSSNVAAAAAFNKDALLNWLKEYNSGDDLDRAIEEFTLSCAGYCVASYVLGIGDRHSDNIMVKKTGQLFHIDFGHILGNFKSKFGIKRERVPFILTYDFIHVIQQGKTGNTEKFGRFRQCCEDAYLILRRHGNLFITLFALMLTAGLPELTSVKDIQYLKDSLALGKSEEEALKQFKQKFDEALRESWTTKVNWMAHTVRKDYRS
PI3Kβ isoform, sequence (P27986 whole entry partner, canonical isoform): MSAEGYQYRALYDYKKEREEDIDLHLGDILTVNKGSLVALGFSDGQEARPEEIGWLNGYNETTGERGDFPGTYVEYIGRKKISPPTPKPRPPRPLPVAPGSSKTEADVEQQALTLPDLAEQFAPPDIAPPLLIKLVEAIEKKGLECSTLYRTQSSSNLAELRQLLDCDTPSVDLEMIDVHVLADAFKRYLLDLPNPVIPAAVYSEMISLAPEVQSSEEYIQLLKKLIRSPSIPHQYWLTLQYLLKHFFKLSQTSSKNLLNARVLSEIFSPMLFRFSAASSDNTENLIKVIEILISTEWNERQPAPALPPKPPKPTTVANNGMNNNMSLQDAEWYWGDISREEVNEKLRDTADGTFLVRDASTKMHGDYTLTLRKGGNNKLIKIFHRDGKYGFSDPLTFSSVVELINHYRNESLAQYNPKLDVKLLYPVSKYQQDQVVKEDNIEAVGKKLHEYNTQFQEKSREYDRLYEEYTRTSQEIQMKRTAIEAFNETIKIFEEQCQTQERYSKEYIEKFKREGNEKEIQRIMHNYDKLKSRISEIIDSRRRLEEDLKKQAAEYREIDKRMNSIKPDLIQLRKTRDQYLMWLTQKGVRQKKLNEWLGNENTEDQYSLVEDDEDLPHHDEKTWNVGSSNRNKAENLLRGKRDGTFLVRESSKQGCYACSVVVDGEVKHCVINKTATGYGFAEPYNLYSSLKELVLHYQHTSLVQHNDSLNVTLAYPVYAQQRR

In general, IC50 refers to the midpoint of a concentration-inhibition curve. A low value points to higher potency. The solubility is the dissolved amount per volume that the medium holds. Broadly, the bioavailability is dose-corrected exposure relative to a reference, in per cent. Lower therefore signals poor availability. For the molecule `Cc1cc(C(C)N(CCN)c2ccccc2)c2nc(N3CCOCC3)cc(=O)n2c1` (stereo not drawn) [CK-TGX-MN, 9-(1-((2-aminoethyl)(phenyl)amino)ethyl)-7-methyl-2-morpholino-4H-pyrido[1,2-a]pyrimidin-4-one], the IC50 was 6.39 µM in data set [1]; 17.2 µM in data set [3]; 13.5 µM in data set [4]; 0.00948 µM in data set [5]; 24.4 µM in data set [7]; 23.9 µM in data set [8]. In data set [9], this molecule registered a half-maximal inhibitory concentration (IC50) of 15.8 µM. Besides, in data set [2], the solubility is 4630 µg/mL and 11400 µM. The bioavailability in data set [6] is about 6.4%.
Regarding `Cc1cc(C(C)Nc2ccccc2)c2nc(N3CCOCC3)cc(=O)n2c1` (stereo not drawn) [TGX-221, 7-methyl-2-(4-morpholinyl)-9-[1-(phenylamino)ethyl]-4H-pyrido[1,2-a]pyrimidin-4-one], the IC50 is 30.5 µM in data set [1]; 81.2 µM in data set [3]; 42 µM in [4]; 156 µM in data set [7]; 69.7 µM in data set [8]; 93.2 µM in data set [9]. Moreover, the solubility in data set [2] is 90 µg/mL and 250 µM; in [10] it was under 1000 µg/mL. Besides, the “Log D7.4” value in data set [10] (pH 7.4) was 3.6.
